Measurements taken from US20030091533A1, “Regulation of mononuclear phagocyte stimulation” (priority 2001, published 2003).

What was measured:
[1] = test system: LPS-stimulated PBM; test: Intracellular oxidative burst, DCFH oxidation assay, PBM; format: cell-based, human
Protocol: Intracellular oxidative capacity was assessed essentially as described by Bass et al., J. Immunol., 130:1910-1917 (1983) (incorporated herein by reference) as described infra.
Cells (0.2×10^6) were preincubated for 24 hour with IL-9 or IL-4 (20 ng/ml) in the presence of IFN-γ (200 U/ml) before stimulation for 20 hour with LPS (1 μg/ml). The intracellular oxidative capacity was measured through the DCFH oxidation assay as describe herein. FIG. 3 depicts the effect of IFN-γ on the inhibition mediated by IL-9 and IL-4 on the oxidative burst in LPS-stimulated PBM (A) and AM (B).
Table 1. Specific blockade of the IL-9 inhibitory effect on oxidative burst in LPS-15 stimulated PBM and AM by anti-hIL-9R mAb. Cells (0.2×10^6) were preincubated with neutralizing mAb against hIL-9R (AH9R7, 10 μg/ml), or with control mIgG2b (10 μg/ml), 1 hour before incubation with IL-9 (20 ng/ml) for 24 hour without removing mAb, and stimulated by LPS (1 μg/ml) for 20 h. Intracellular oxidative capacity was evaluated by the DCFH oxidation assay. Data are means±SEM obtained from three experiments, triplicate conditions being performed in each experiment. *P<0.001 compared with cells preincubated with IL-9 (with or without control mIgG2b).
Cells (0.2×10^6) were preincubated with neutralizing mAb, either against TGF-β1 (30 μg/ml) or against IL-10Rβ (30 μg/ml) or with control mIgG1 (30 μg/ml), 2 hour before incubation with IL-9 (20 ng/ml) for 24 hour without removing the mAb, and stimulated with LPS (1 μg/ml) for 20 h. Intracellular oxidative capacity was evaluated by the DCFH oxidation assay.
Intracellular oxidative capacity was assessed as described by Bass et al., (Bass et al., J. Immunol. 130:1910-1917 (1983)). Briefly, the PBM and AM samples were distributed in 96-well plates with flat bottoms (Falcon) to provide 0.2×10^6cells/well. The cells were preincubated for 24 hour at 37° C., 5% CO2 with cytokines (200 u/ml for IFN-y, 20 ng/ml for IL-9 and 20 ng/ml; for IL-4) in cRPMI before being stimulated for 20 hours with LPS (1 μg/ml) without removing the cytokines. At the end of incubation with cytokines and/or LPS, cells were loaded for 15 min with 15 μM DCFH-DA in cRPMI which, after passive penetration into cells, is hydrolyzed into nonfluorescent polar DCFH and trapped inside the cells. DCFH is then oxidized into highly fluorescent DCF according to the intracellular amount of hydrogen peroxide (H2O2) produced by the respiratory burst. After three washings with phosphate-buffered saline (PBS, pH 7.4), cells were lysed in 0.1% v/v Triton X100 (Sigma) in PBS, and fluorescence was quantified in a computerized microplate spectrofluorimeter (Packard Instruments, Downers Grove, Ill., USA) at 485 nm excitation/530 nm emission wavelengths. DCF concentrations were deduced from a standard curve of known concentrations of fluorescent DCF (ranging from 0.08 to 10 μM in lysis buffer) Results were corrected for total protein concentration determined in cell lysates by the bicinchoninic acid-based method (Pierce, Rockford, Ill., USA), and were expressed as nmoles DCF/mg cell protein.

[2] = test system: ERK½; test: ERK½ MAP kinase phosphorylation immunoblot in PBM; format: cell-based, human; settings: pretreatment before LPS 1 μg/ml; IL-9 20 ng/ml 24 hour; PD98059 1 hour
Protocol: PBM, isolated as described infra, were treated with 100 !M PD98059 (or with the same volume of DMSO as control) 1 hour before preincubation for 24 hour with medium or IL-9 (20 ng/ml). For the phosphoERK immunoblot assay (A), PBM were then stimulated by LPS (1 μg/ml) for the indicated periods of time (5 min to 20 hours) as compared to unstimulated cells (med), and processed for the detection of phosphorylated and total ERK½ as described in infra. For the oxidative burst (B), PBM were stimulated by LPS (1 μg/ml) for 20 hour and their oxidative capacity was evaluated through DCFH oxidation The results are presented in FIG. 7.
PBM were preincubated for 24 hour with medium alone (med) or IL-9, IL-4 or TGF-β1 (20 ng/ml), and stimulated by LPS (1 μg/ml) for the indicated periods of time (30 to 240 min). […]
PBM (1×10^6) were preincubated for 24 hour with medium alone or with cytokines (IL-9, IL-4 or TGF-β1 at 20 ng/ml) and stimulated from 5 min to 20 hour by 1 μg/ml LPS. […] Cell extracts (10 μg, as determined by the bicinchoninic acid-based assay) were subjected to SDS-12%PAGE, and electrotransferred onto a nitrocellulose membrane (Amersham) immunoblotted to detect and compare phosphorylated (threonine^202/tyrosine^204 residues) and total ERK½, using specific antibodies and enhanced chemiluminescence (New England Biolabs). […]

[3] = test system: surface of PBM and AM; test: IL-9 binding assay with hIL-9-mIgG3 chimeric molecule by FACS; parameters: species or system human; settings: revealed by GAM3-FITC, compared with control
Protocol: To assess the IL-9 binding by PBM and AM, cells (0.2×10^6) were incubated with hIL-9-nIlgG3 chimeric protein and binding was assayed with GAM3-FITC. FIG. 4 is representative of five and three experiments for respectively IL-9R expression and IL-9 binding.
Binding of IL-9 to the surface of PBM and AM was assessed by incubating these cells (0.2×10^6) at 4° C. for 1 hour with hIL-9-mIgG3 chimeric molecule (10% COS cell supernatant). […] Cells incubated with mIgG3 before GAM3-FITC served as the negative control. FACS analysis of the cell-associated fluorescence was then performed as for the assessment of IL-9R expression.
Binding of IL-9 to the surface of PBM and AM was assessed by incubating these cells (0.2×10^6) at 4° C. for 1 hour with hIL-9-mIgG3 chimeric molecule (10%, v/v, COS cell supernatant). […] Cells incubated with mIgG3 before GAM3-FITC or only with GAM3-FITC served as negative controls. FACS analysis of the cell-associated fluorescence was then performed as for the assessment of IL-9R expression.

[4] = test system: PMA-stimulated PBM; test: Extracellular O2- release, SOD-inhibitable reduction of ferricytochrome c; format: cell-based, human; settings: PMA as stimulus, preliminary experiments
Protocol: Extracellular release of O2-derived radicals was evaluated by the SOD-inhibitable reduction of ferricytochrome c, as previously described (Pick, Methods in Enzymology, 132:407-421 (1986)) as described infra.
Extracellular release of O2-derived radicals was evaluated by the SOD-inhibitable reduction of ferricytochrome c, as previously described (Pick, Methods in Enzymology, 132:407-421 (1986)). Briefly, after incubation with IL-9 and IL-4 (20 ng/ml) for 1 hour, 4 hour 24 hour and 96 hour, cells were washed three times in Hank's balanced salt solution without phenol red (HBSS) to remove the phenol red-containing medium and incubated at 37° C. with HBSS containing 160 μM ferricytochrome c (plus 300 IU/ml SOD as control for each condition), and concomittantly with 100 ng/ml PMA when indicated. Optical density (OD) at 550 nm was then recorded in a plate spectrometer (Titertek Multiscan Plus MKII, Labsystems, Finland) after 60 min. The released amount of superoxide anion (O2^−) was deduced from the absorbance values at 550 nm (after subtraction of control values with SOD) using the cytochrome c extinction coefficient of 21×10^3 M^−1 cm^−1 (See Massey, Biochim Biophys Acta, 34: 255(1959)). Results were expressed as nmoles O2^− per 10^6 cells per hour (FIG. 1).

[5] = test system: LPS-stimulated PBM; test: Intracellular oxidative burst, DCFH oxidation assay, PBM; format: cell-based, human; settings: PMA as stimulus, preliminary experiments

COc1cccc(-c2cc(=O)c3ccccc3o2)c1N [PD98059, reference compound]
effect on LPS-stimulated ROI production (oxidative burst) in monocytes ([1]; PD98059 1 hour before preincubation, LPS 20 hour, DCFH oxidation): completely suppressed | LPS-induced ERK½ phosphorylation in PBM [2]: prevented

IL-9-mIgG3: human IL-9 fused to hinge, CH2 and CH3 domains of murine IgG3 heavy chain, COS cell supernatant
binding of IL-9 on the surface of AM [3]: significant binding | binding of IL-9 on the surface of PBM [3]: significant binding

CCCCCCCCCCCCCC(=O)O[C@@H]1[C@@H](C)[C@@]2(O)[C@@H](C=C(CO)C[C@]3(O)C(=O)C(C)=C[C@@H]23)[C@@H]2C(C)(C)[C@]12OC(C)=O [PMA, phorbol myristate acetate, reference compound]
cytochrome c reduction by PBM [4]: strongly stimulated | DCFH oxidation by PBM [5]: only a minor effect

TGF-β1: monocyte/macrophage deactivating factor, 20 ng/ml
Oxidative burst (nmoles DCF/mg protein) ([1]; Table 3, PBM, mAb 30 μg/ml 2 hour before IL-9 20 ng/ml 24 hour, LPS 1 μg/ml 20 h, means±SD, Medium 10.3 ± 0.2): 10.2 ± 0.5 nmoles DCF/mg protein | LPS-stimulated oxidative burst in PBM ([1]; preincubation 24 hour with cytokine 20 ng/ml, then LPS 1 μg/ml 20 hour, without IFN-γ): 10.2±0.5 nmoles DCF/mg protein
